The values that follow come from ChEMBL document CHEMBL1148041, “New fatty acid esters of drimane sesquiterpenes from Lactarius uvidus” (J Nat Prod, 1994).

Data set [1] has as its system HL-60. Briefly: Cytotoxicity against human HL60 cells assessed as inhibition of [3H]thymidine incorporation at 50 gamma/ml. Type of data set: functional. Background: Incorporation of labelled thymidine or its analogues reports DNA synthesis.
Another data set relates to Artemia salina. Briefly: Toxicity in Artemia salina. Type of data set: organism-based. Conditions: in vivo.
In data set [2] the test system is HL-60. Briefly: Cytotoxicity against human HL60 cells assessed as inhibition of [3H]thymidine incorporation at 0.05 gamma/ml. Type of data set: functional.

For orientation: LC50 means the concentration lethal to half of the exposed cells or organisms. A high value points to a less lethal substance. Regarding `CC1(C)CCC[C@]2(C)[C@@H](CO)[C@@]3(C)O[C@H]3C(=O)[C@@H]12` [UVIDIN A], the results for the “inhibition (INH)” value with HL-60 [1] and in the data set on HL-60 [2] were 97% and 21%, respectively. Moreover, the LC50 in the data set with Artemia salina turned out to be 48.8 ppm.
On to `CC1(C)[C@@H](O)CC[C@]2(C)[C@@H](CO)[C@@]3(C)O[C@H]3C(=O)[C@@H]12` [UVIDIN B], for which the “inhibition (INH)” value is given as 61% with HL-60 [1] and 0% in the data set on HL-60 [2].
